Test systems include A549 NSCLC; EKVX NSCLC; HL-60(TB) leukemia; HOP-62 NSCLC; LOX IMVI melanoma; SK-MEL-2 melanoma; SK-MEL-5 melanoma; UO-31 renal; SNB-75 CNS.
Holding throughout (assay): DTP human tumour cell line panel, 48 h

Each structure is given as a SMILES string.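 Five compound concentrations were applied to cells in 96-well plates for 48 hours; endpoints were derived by simple linear interpolation of the resulting dose-response curve. The concentration for 50% growth inhibition is given as GI50. TGI: concentration producing complete growth inhibition.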

As usually defined, the GI50 is the concentration giving 50% growth inhibition. For orientation: TGI means the concentration at which net growth stops. High values mean less potent growth arrest, low ones more potent growth arrest.

`CC(=O)O[C@@H]1CC2C(C)(C)CCCC2(C)C2=C1C(=O)C(C(C)C)=CC2=O` (stereo partly drawn): the GI50 in the experiment with A549 NSCLC is 1.43 µM; in the experiment on EKVX NSCLC it was 1.02 µM; in the experiment on HL-60(TB) leukemia it was 0.744 µM; in the experiment on HOP-62 NSCLC, 1.77 µM; with LOX IMVI melanoma it was 1.59 µM; with SK-MEL-2 melanoma, 0.95 µM. Also, the GI50 in the experiment on SK-MEL-5 melanoma is 0.581 µM; in the experiment with UO-31 renal it was 0.519 µM. The TGI with A549 NSCLC amounted to 5.83 µM; with EKVX NSCLC, 6.88 µM; with HL-60(TB) leukemia it was 4.28 µM; in the experiment with HOP-62 NSCLC, 4.13 µM; with LOX IMVI melanoma, 3.48 µM; in the experiment on SK-MEL-2 melanoma it was 3.53 µM. The total growth inhibition concentration (TGI) in the experiment on SK-MEL-5 melanoma amounted to 1.84 µM; with UO-31 renal, 1.8 µM.
As to `CCCCCCCCCCCC[n+]1ccc(CCCCCCCCC)cc1`, the GI50 in the experiment with HL-60(TB) leukemia is 0.362 µM; in the experiment with HOP-62 NSCLC it was 1.41 µM; with SNB-75 CNS, 1.26 µM; in the experiment on UO-31 renal, 1.27 µM. Further, the TGI in the experiment with HL-60(TB) leukemia turned out to be 1.83 µM; in the experiment with HOP-62 NSCLC, 2.9 µM; in the experiment with SNB-75 CNS, 2.57 µM; in the experiment with UO-31 renal, 2.59 µM.
As for `COC(=O)c1csc(-c2nc(CCNC(=O)OC(C)(C)C)sc2Br)n1`, the TGI with A549 NSCLC, in the experiment with EKVX NSCLC, with HL-60(TB) leukemia, with HOP-62 NSCLC, in the experiment with SK-MEL-5 melanoma and in the experiment with SNB-75 CNS was more than 100 µM throughout. The TGI with UO-31 renal is more than 100 µM.
Turning to `Nc1nc2c(c(=O)[nH]1)CN(c1ccc(S(N)(=O)=O)cc1)CN2`, the TGI with A549 NSCLC, in the experiment with EKVX NSCLC, with HOP-62 NSCLC, in the experiment with LOX IMVI melanoma, with SK-MEL-2 melanoma and with SK-MEL-5 melanoma was more than 100 µM in each case. The TGI in the experiment with UO-31 renal is more than 100 µM.
For the molecule `CC(=O)OCC1OC(n2ccc(=O)[nH]c2=O)C(OC(C)=O)C1OC(C)=O` (stereo not drawn), the GI50 in the experiment with A549 NSCLC, with EKVX NSCLC, with HOP-62 NSCLC, in the experiment on LOX IMVI melanoma, in the experiment with SK-MEL-2 melanoma and with SK-MEL-5 melanoma was more than 100 µM each time. For the same molecule, the GI50 in the experiment on SNB-75 CNS and in the experiment on UO-31 renal was more than 100 µM throughout. For the same molecule, the TGI in the experiment with A549 NSCLC, in the experiment with EKVX NSCLC, in the experiment with HOP-62 NSCLC, in the experiment with LOX IMVI melanoma, with SK-MEL-2 melanoma and in the experiment with SK-MEL-5 melanoma was more than 100 µM in each case. In addition, the TGI in the experiment with SNB-75 CNS and with UO-31 renal was more than 100 µM in each case.
For the molecule `NNC(=O)CCC(=O)NC1C2CC3CC(C2)CC1C3` (stereo not drawn), the TGI with A549 NSCLC, in the experiment with HL-60(TB) leukemia, in the experiment with HOP-62 NSCLC, in the experiment with LOX IMVI melanoma, in the experiment on SK-MEL-2 melanoma and in the experiment on SK-MEL-5 melanoma was more than 100 µM each time. In addition, the TGI in the experiment on SNB-75 CNS and with UO-31 renal was more than 100 µM each time.
Regarding `C=C(C)C(=O)O[C@H]1[C@H]2[C@H](OC(=O)[C@H]2C)[C@H](O)[C@@H](C)[C@@H]2C=CC(=O)[C@]21C`, the TGI in the experiment on A549 NSCLC came to 12.5 µM; in the experiment on EKVX NSCLC, 14.8 µM; in the experiment on HL-60(TB) leukemia, 2.86 µM; in the experiment with HOP-62 NSCLC it was 34.1 µM; in the experiment with LOX IMVI melanoma, 7.74 µM; in the experiment on SK-MEL-2 melanoma, 18.4 µM. Also, the results for the TGI with SK-MEL-5 melanoma and with UO-31 renal were 20.2 µM and 15.4 µM, respectively.
With `O=NNc1nc(-c2cccnc2)nc2ccccc12`, the TGI with A549 NSCLC, in the experiment on EKVX NSCLC, with HL-60(TB) leukemia, with HOP-62 NSCLC, in the experiment on SK-MEL-5 melanoma and in the experiment on SNB-75 CNS was more than 100 µM each time. The molecule further displayed a TGI in the experiment with UO-31 renal of 32.8 µM.
Take `COc1c(N2CCN(CN3C(=O)C(=Nc4ccc(S(=O)(=O)Nc5ncccn5)cc4)c4ccccc43)C(C)C2)c(F)cc2c(=O)c(C(=O)O)cn(C3CC3)c12` (stereo not drawn): the GI50 is more than 50 µM with A549 NSCLC; more than 50 µM with EKVX NSCLC; more than 50 µM in the experiment on HL-60(TB) leukemia; 27.5 µM in the experiment on LOX IMVI melanoma; 20 µM with SK-MEL-2 melanoma; 20.2 µM in the experiment on SK-MEL-5 melanoma. For the same molecule, the GI50 in the experiment on SNB-75 CNS was 7.71 µM; in the experiment on UO-31 renal it was 40.1 µM. Besides, the TGI in the experiment on A549 NSCLC, in the experiment with EKVX NSCLC, in the experiment with HL-60(TB) leukemia, in the experiment on LOX IMVI melanoma, in the experiment with SK-MEL-2 melanoma and in the experiment on SK-MEL-5 melanoma was more than 50 µM in each case. The TGI in the experiment with SNB-75 CNS and in the experiment on UO-31 renal was more than 50 µM throughout.
On to `CCCCn1cnc2c(SC)ncnc21`, for which the TGI in the experiment with A549 NSCLC, in the experiment on EKVX NSCLC, with HOP-62 NSCLC, with LOX IMVI melanoma, in the experiment with SK-MEL-2 melanoma and with SK-MEL-5 melanoma was more than 100 µM in each case. Besides, the TGI in the experiment on SNB-75 CNS and in the experiment with UO-31 renal was more than 100 µM each time.
In the case of `COc1ccc(C2S/C(=C\c3ccc(O)cc3)C(=O)N2NC(=O)Cc2ccccc2)cc1` (stereo not drawn), the TGI in the experiment on A549 NSCLC, in the experiment on HL-60(TB) leukemia, in the experiment with HOP-62 NSCLC, with LOX IMVI melanoma, in the experiment on SK-MEL-2 melanoma and with SK-MEL-5 melanoma was more than 100 µM throughout. Further, the TGI with SNB-75 CNS and with UO-31 renal was more than 100 µM each time.
`CC(=O)OC1c2ccccc2CCCCCCC12OCCO2` (stereo not drawn): the TGI in the experiment on A549 NSCLC, in the experiment on HL-60(TB) leukemia, in the experiment with HOP-62 NSCLC, in the experiment with LOX IMVI melanoma, in the experiment on SK-MEL-2 melanoma and with SK-MEL-5 melanoma was more than 100 µM each time. The TGI with SNB-75 CNS and in the experiment on UO-31 renal was more than 100 µM each time.
On to `CC(=O)[O-].CC(=O)[O-].[NH2-].[Pt+2].c1ccc2cnccc2c1`, for which the GI50 is 0.147 µM in the experiment on A549 NSCLC; 9.62 µM in the experiment with HL-60(TB) leukemia; 74.5 µM in the experiment with HOP-62 NSCLC; 9.19 µM in the experiment on LOX IMVI melanoma; 36 µM in the experiment on SK-MEL-2 melanoma; 38.4 µM in the experiment with SK-MEL-5 melanoma. For the same molecule, the GI50 is more than 100 µM with SNB-75 CNS and 22.9 µM in the experiment on UO-31 renal. Besides, the TGI was 15.7 µM in the experiment with A549 NSCLC; 87.5 µM in the experiment with HL-60(TB) leukemia; more than 100 µM in the experiment with HOP-62 NSCLC; 31.7 µM with LOX IMVI melanoma; more than 100 µM in the experiment with SK-MEL-2 melanoma; more than 100 µM in the experiment on SK-MEL-5 melanoma. The TGI in the experiment with SNB-75 CNS was more than 100 µM; with UO-31 renal, 97.5 µM.

Values taken from PubChem BioAssay (NCI).
